In brackets after ≈: the same amount, converted by molar mass. Where a SMILES comes first, the peptide text is derived from it. [ ]: non-standard residue; d: D form. Trp(1-Me) = Cn1cc(C[C@H](N)C(=O)O)c2ccccc21
Columns and labels:
E. coli (ATCC 25922) = test: microbe, parasite or virus in culture; assay type: cell-based, Escherichia coli
Procedure: (§1) To evaluate the antibacterial activity of all the synthesized peptides, the minimum inhibitory concentration (MIC) was determined using the micro broth dilution method (Table 1), as per the Clinical Laboratory Standards Institute (CLSI). The MIC is a quantitative measurement of the minimum concentration of a compound required to inhibit visible bacterial growth. MIC values for all 20 peptides were measured against E. coli (ATCC 25922) and MRSA (Los Angeles County clone (LAC)) (Table 1). These two bacterial strains represent Gram-negative and Gram-positive pathogens. MRSA is one of the most challenging Gram-positive bacteria that leads to a life-threatening infection, while E. coli is a Gram-negative bacteria that has the ability to use gene mutations and multidrug efflux pumps that can result in multidrug resistance.
(§2) Two bacterial strains, methicillin-resistant Staphylococcus aureus (LAC) and Escherichia coli (ATCC 25922) were used for the evaluation of the antibacterial activities of the peptides. […] MRSA and E. coli were inoculated into Mueller Hinton (MH) broth (5 mL) at 37 °C. After shaking in an orbital shaker (175 rpm) overnight, the cultured suspension was diluted using normal saline (5 mL). […] An amount of 40 μL of the McFarland solution was then added to 5980 μL of MH media to afford 1/150 dilution. […] Minimal inhibitory concentrations (MIC) values were obtained using the broth micro dilution assay. In brief, first, the peptides and controls (200 μL) were added to the first column of the 96 well plate. Second, 2-fold serial dilutions of the compound were accomplished by adding media (100 μL) to other wells. After the serial dilution, the bacterial solution (100 μL) was added to all the wells. Finally, the microtiter plates were incubated statically at 37 °C overnight. MIC values were obtained by observing the minimal concentration at which bacterial growth was not visible. All the determinations were carried out in triplicate.

[1] = tested on: MRSA (Los Angeles County clone (LAC)); test: microbe, parasite or virus in culture; assay type: cell-based, methicillin-resistant Staphylococcus aureus; details: for MIC MRSA (LAC): Los Angeles County clone (LAC); for reduction of antibacterial activity compared with [R4W4]: comparison of MIC values with lead compound [R4W4]
Procedure: as §1, §2

MRSA (ATCC 43300) = details: cited from earlier work
Source text: Synthesis of AMPs by modifying the structures of amino acids is relatively easy. Change in the structure of natural and synthetic AMPs can be used to develop new active compounds with optimal activity and stability. Developing small-sized linear or cyclic peptides for AMP application is more accessible than the complex AMPs isolated from natural products containing disulfide bonds. The cyclic peptides are polypeptides chains containing a cyclic structure synthesized by linking the carboxylic acid and amino groups in the peptide.

Row | Molecule | MIC E. coli (ATCC 25922) (E. coli (ATCC 25922)) | MIC MRSA (LAC) [1] | also measured
1 | C[C@@H](O)[C@H]1C(=O)N2C(C(=O)O)=C(S[C@@H]3CN[C@H](C(=O)N(C)C)C3)[C@H](C)[C@H]12 [Meropenem, reference compound] |  |  | MIC (E. coli (ATCC 25922); Escherichia coli, ATCC25922, broth microdilution, Mueller Hinton broth, 37 °C overnight, visible growth, triplicate): 0.25 µg/mL (≈ 0.652 µM)
2 | N=C(N)NCCC[C@H](NC(=O)[C@H](CCCNC(=N)N)NC(=O)[C@H](CCCNC(=N)N)NC(=O)[C@@H](N)CCCNC(=N)N)C(=O)N[C@@H](Cc1c[nH]c2ccccc12)C(=O)N[C@@H](Cc1c[nH]c2ccccc12)C(=O)N[C@@H](Cc1c[nH]c2ccccc12)C(=O)N[C@@H](Cc1c[nH]c2ccccc12)C(=O)N[C@@H](Cc1c[nH]c2ccccc12)C(=O)O [R4W5 (18)5] | 32 µg/mL (≈ 20.3 µM) | 16 µg/mL (≈ 10.2 µM) | 
3 | CN[C@H](CC(C)C)C(=O)N[C@H]1C(=O)N[C@@H](CC(N)=O)C(=O)N[C@H]2C(=O)N[C@H]3C(=O)N[C@H](C(=O)N[C@H](C(=O)O)c4cc(O)cc(O)c4-c4cc3ccc4O)[C@H](O)c3ccc(c(Cl)c3)Oc3cc2cc(c3O[C@@H]2O[C@H](CO)[C@@H](O)[C@H](O)[C@H]2O[C@H]2C[C@](C)(N)[C@H](O)[C@H](C)O2)Oc2ccc(cc2Cl)[C@H]1O [Vancomycin, reference compound] |  |  | MIC ([1]; Staphylococcus aureus, MRSA, read-out: MIC MRSA (LAC)): 1 µg/mL (≈ 0.69 µM)
4 | C[C@@H]1NC(=O)[C@H](C)NC(=O)[C@H](C)NC(=O)[C@H](CCCNC(=N)N)NC(=O)[C@H](CCCNC(=N)N)NC(=O)[C@H](CCCNC(=N)N)NC(=O)[C@H](CCCNC(=N)N)NC(=O)[C@H](C)NC1=O [[A4R4] (10)] (cyclo(AAAARRRR)) | >128 µg/mL | >128 µg/mL | 
5 | N=C(N)NCCC[C@H]1NC(=O)[C@H](Cc2c[nH]c3ccccc23)NC(=O)[C@H](Cc2c[nH]c3ccccc23)NC(=O)[C@H](Cc2c[nH]c3ccccc23)NC(=O)[C@H](Cc2c[nH]c3ccccc23)NC(=O)[C@@H](CCCNC(=N)N)NC(=O)[C@@H](CCCNC(=N)N)NC(=O)[C@@H](CCCNC(=N)N)NC1=O [[DR4W4] (14)] (cyclo([dR][dR][dR][dR]WWWW)) | 16 µg/mL (≈ 11.7 µM) | 8 µg/mL (≈ 5.84 µM) | reduction of antibacterial activity compared with [R4W4] [1]: two-fold
6 | O=C(O)CC[C@@H]1NC(=O)[C@H](CCC(=O)O)NC(=O)[C@H](CCC(=O)O)NC(=O)[C@H](Cc2c[nH]c3ccccc23)NC(=O)[C@H](Cc2c[nH]c3ccccc23)NC(=O)[C@H](Cc2c[nH]c3ccccc23)NC(=O)[C@H](Cc2c[nH]c3ccccc23)NC(=O)[C@H](CCC(=O)O)NC1=O [[E4W4] (16)] (cyclo(EEEEWWWW)) | >128 µg/mL | >128 µg/mL | antibacterial activity (in words) ([1]; text summary of MIC results): abolished the activity completely
7 | N=C(N)NCCC[C@@H]1NC(=O)[C@H](CCCNC(=N)N)NC(=O)[C@H](CCCNC(=N)N)NC(=O)[C@H](Cc2ccccc2)NC(=O)[C@H](Cc2ccccc2)NC(=O)[C@H](Cc2ccccc2)NC(=O)[C@H](Cc2ccccc2)NC(=O)[C@H](CCCNC(=N)N)NC1=O [[F4R4] (9)] (cyclo(RRRRFFFF)) | >128 µg/mL | >128 µg/mL | 
8 | CC[C@H](C)[C@@H]1NC(=O)[C@H](CCCNC(=N)N)NC(=O)[C@H](CCCNC(=N)N)NC(=O)[C@H](CCCNC(=N)N)NC(=O)[C@H](CCCNC(=N)N)NC(=O)[C@H]([C@@H](C)CC)NC(=O)[C@H]([C@@H](C)CC)NC(=O)[C@H]([C@@H](C)CC)NC1=O [[I4R4] (11)] (cyclo(IIIIRRRR)) | >128 µg/mL | >128 µg/mL | 
9 | NCCCC[C@@H]1NC(=O)[C@H](CCCCN)NC(=O)[C@H](CCCCN)NC(=O)[C@H](Cc2c[nH]c3ccccc23)NC(=O)[C@H](Cc2c[nH]c3ccccc23)NC(=O)[C@H](Cc2c[nH]c3ccccc23)NC(=O)[C@H](Cc2c[nH]c3ccccc23)NC(=O)[C@H](CCCCN)NC1=O [[K4W4] (15)] (cyclo(KKKKWWWW)) | 16 µg/mL (≈ 12.7 µM) | 8 µg/mL (≈ 6.36 µM) | reduction of antibacterial activity compared with [R4W4] [1]: two-fold
10 | CC(C)C[C@@H]1NC(=O)[C@H](CCCNC(=N)N)NC(=O)[C@H](CCCNC(=N)N)NC(=O)[C@H](CCCNC(=N)N)NC(=O)[C@H](CCCNC(=N)N)NC(=O)[C@H](CC(C)C)NC(=O)[C@H](CC(C)C)NC(=O)[C@H](CC(C)C)NC1=O [[L4R4] (12)] (cyclo(LLLLRRRR)) | >128 µg/mL | >128 µg/mL | 
11 | N=C(N)NCCC[C@@H]1NC(=O)[C@H](CCCNC(=N)N)NC(=O)[C@H](CCCNC(=N)N)NC(=O)[C@H](Cc2c[nH]c3ccccc23)NC(=O)[C@H](Cc2c[nH]c3ccccc23)NC(=O)[C@H](Cc2c[nH]c3ccccc23)NC(=O)[C@H](Cc2c[nH]c3ccccc23)NC(=O)[C@H](CCCNC(=N)N)NC1=O [[R4W4] (7)] (cyclo(RRRRWWWW)) | 16 µg/mL (≈ 11.7 µM) | 4 µg/mL (≈ 2.92 µM) | MIC against MRSA (ATCC 43300) (MRSA (ATCC 43300)): 2.67 µg/mL (≈ 1.95 µM); MIC against MRSA as printed in the cytotoxicity section ([1]; text of section 2.3): 4 µM (≈ 5.48 µg/mL)
12 | N=C(N)NCCC[C@@H]1NC(=O)[C@H](CCCNC(=N)N)NC(=O)[C@H](CCCNC(=N)N)NC(=O)[C@H](CCCNC(=N)N)NC(=O)[C@H](Cc2c[nH]c3ccccc23)NC(=O)[C@H](Cc2c[nH]c3ccccc23)NC(=O)[C@H](Cc2c[nH]c3ccccc23)NC(=O)[C@H](Cc2c[nH]c3ccccc23)NC(=O)[C@H](Cc2c[nH]c3ccccc23)NC(=O)[C@H](CCCNC(=N)N)NC(=O)[C@H](CCCNC(=N)N)NC(=O)[C@H](CCCNC(=N)N)NC1=O [[R7W5] (17)] (cyclo(RRRRRRRWWWWW)) | 64 µg/mL (≈ 31.6 µM) | 32 µg/mL (≈ 15.8 µM) | 
13 | N=C(N)NCCC[C@@H]1NC(=O)[C@H](CCCNC(=N)N)NC(=O)[C@H](CCCNC(=N)N)NC(=O)[C@H](CCCNC(=N)N)NC(=O)[C@H](Cc2c[nH]c3ccccc23)NC(=O)[C@H](Cc2c[nH]c3ccccc23)NC(=O)[C@H](Cc2c[nH]c3ccccc23)NC(=O)[C@H](Cc2c[nH]c3ccccc23)NC(=O)[C@H](Cc2c[nH]c3ccccc23)NC(=O)[C@H](Cc2c[nH]c3ccccc23)NC(=O)[C@H](CCCNC(=N)N)NC(=O)[C@H](CCCNC(=N)N)NC(=O)[C@H](CCCNC(=N)N)NC1=O [[R7W6] (19)] (cyclo(RRRRRRRWWWWWW)) | 64 µg/mL (≈ 29 µM) | 16 µg/mL (≈ 7.24 µM) | 
14 | N=C(N)NCCC[C@@H]1NC(=O)[C@H](CCCNC(=N)N)NC(=O)[C@H](CCCNC(=N)N)NC(=O)[C@H](CCCNC(=N)N)NC(=O)[C@H](Cc2c[nH]c3ccccc23)NC(=O)[C@H](Cc2c[nH]c3ccccc23)NC(=O)[C@H](Cc2c[nH]c3ccccc23)NC(=O)[C@H](Cc2c[nH]c3ccccc23)NC(=O)[C@H](Cc2c[nH]c3ccccc23)NC(=O)[C@H](Cc2c[nH]c3ccccc23)NC(=O)[C@H](Cc2c[nH]c3ccccc23)NC(=O)[C@H](CCCNC(=N)N)NC(=O)[C@H](CCCNC(=N)N)NC(=O)[C@H](CCCNC(=N)N)NC1=O [[R7W7] (20)] (cyclo(RRRRRRRWWWWWWW)) | 32 µg/mL (≈ 13.4 µM) | 8 µg/mL (≈ 3.34 µM) | 
15 | Cn1cc(C[C@@H]2NC(=O)[C@H](CCCNC(=N)N)NC(=O)[C@H](CCCNC(=N)N)NC(=O)[C@H](CCCNC(=N)N)NC(=O)[C@H](CCCNC(=N)N)NC(=O)[C@H](Cc3cn(C)c4ccccc34)NC(=O)[C@H](Cc3cn(C)c4ccccc34)NC(=O)[C@H](Cc3cn(C)c4ccccc34)NC2=O)c2ccccc21 [[W(Me)4R4] (13)] (cyclo([Trp(1-Me)][Trp(1-Me)][Trp(1-Me)][Trp(1-Me)]RRRR)) | 16 µg/mL (≈ 11.2 µM) | 8 µg/mL (≈ 5.61 µM) | 
16 | N=C(N)NCCC[C@@H]1NC(=O)[C@H](CCCNC(=N)N)NC(=O)[C@H](CCCNC(=N)N)NC(=O)[C@H](Cc2ccc(O)cc2)NC(=O)[C@H](Cc2ccc(O)cc2)NC(=O)[C@H](Cc2ccc(O)cc2)NC(=O)[C@H](Cc2ccc(O)cc2)NC(=O)[C@H](CCCNC(=N)N)NC1=O [[Y4R4] (8)] (cyclo(YYYYRRRR)) | >128 µg/mL | >128 µg/mL | 
17 | H-AAAARRRR-OH [A4R4 (2)] | >128 µg/mL | >128 µg/mL | 
18 | H-FFFFRRRR-OH [F4R4 (3)] | >128 µg/mL | >128 µg/mL | 
19 | H-IIIIRRRR-OH [I4R4 (5)] | >128 µg/mL | >128 µg/mL | 
20 | H-LLLLRRRR-OH [L4R4 (4)] | >128 µg/mL | >128 µg/mL | 
21 | H-RRRRWWWW-OH [R4W4 (1)] | 64 µg/mL | 32 µg/mL | 
22 | H-YYYYRRRR-OH [Y4R4 (6)] | >128 µg/mL | >128 µg/mL | 
